Assay results reported in the supplement of paper PMC11208160.

Assay: recombinant barcode read abundance after kanamycin selection (control-corrected) (log10(CPM+1)); higher = more efficient recombination; sequences stand for … in AGTGCAGAGAAAATCGGCCAGTTTTCTCTGCCTGCAGTCCGCATGCCGT…ATTTATGCAGCGGACTGCCTTTCTCCCAAAGTGATAAACCGGACAGTATCATGGACCGGTTTTCCCGGTAATCCGTATTTGCAAGGTTGGTTTCACT; site = the 11-nt target
Summary of the method: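 Recombination efficiency in this pooled E. coli screen uses counts per million of barcodes at recombinant junctions, averaged and corrected against the control. The reported form is log10(CPM+1). Two replicates were plated on chloramphenicol/ampicillin LB agar as control and two on chloramphenicol/ampicillin/kanamycin with 0.1 mM IPTG.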

Sequence | recombinant barcode read abundance (log10)
GGGCGGATGTGGGTTCTAACCTGTTGCGGCA [GGGCGGACTCC_LTGcore_TG_RTGcore_TG] (site GGGCGGACTCC) (LTG core: TG, RTG core: TG) | 0.182
GGGCGTGACTGGGTTCTAACCTGTTGCCTAG [GGGCGTGCTAG_LTGcore_AC_RTGcore_CT] (site GGGCGTGCTAG) (LTG core: AC, RTG core: CT) | 0.437
GGGCGTGACTGGGTTCTAACCTGTTGCCTGT [GGGCGTGCTAG_LTGcore_AC_RTGcore_AC] (site GGGCGTGCTAG) (LTG core: AC, RTG core: AC) | 0.0793
GGGCGTGAGTGGGTTCTAACCTGTTGCCTCT [GGGCGTGCTAG_LTGcore_AG_RTGcore_AG] (site GGGCGTGCTAG) (LTG core: AG, RTG core: AG) | 0.523
GGGCGTGATTGGGTTCTAACCTGTTGCCTAG [GGGCGTGCTAG_LTGcore_AT_RTGcore_CT] (site GGGCGTGCTAG) (LTG core: AT, RTG core: CT) | 0.308
GGGCGTGCGTGGGTTCTAACCTGTTGCCTCG [GGGCGTGCTAG_LTGcore_CG_RTGcore_CG] (site GGGCGTGCTAG) (LTG core: CG, RTG core: CG) | 0.0415
GGGCGTGCTTGGGTTCTAACCTGTTGCCTAA [GGGCGTGCTAG_LTGcore_CT_RTGcore_TT] (site GGGCGTGCTAG) (LTG core: CT, RTG core: TT) | 0.104
GGGCGTGCTTGGGTTCTAACCTGTTGCCTAC [GGGCGTGCTAG_LTGcore_CT_RTGcore_GT] (site GGGCGTGCTAG) (LTG core: CT, RTG core: GT) | 0.107
GGGCGTGCTTGGGTTCTAACCTGTTGCCTAG [GGGCGTGCTAG_LTGcore_CT_RTGcore_CT] (site GGGCGTGCTAG) (LTG core: CT, RTG core: CT) | 1.41
GGGCGTGCTTGGGTTCTAACCTGTTGCCTAT [GGGCGTGCTAG_LTGcore_CT_RTGcore_AT] (site GGGCGTGCTAG) (LTG core: CT, RTG core: AT) | 1.05
GGGCGTGCTTGGGTTCTAACCTGTTGCCTGA [GGGCGTGCTAG_LTGcore_CT_RTGcore_TC] (site GGGCGTGCTAG) (LTG core: CT, RTG core: TC) | 1.02
GGGCGTGCTTGGGTTCTAACCTGTTGCCTGT [GGGCGTGCTAG_LTGcore_CT_RTGcore_AC] (site GGGCGTGCTAG) (LTG core: CT, RTG core: AC) | 0.536
GGGCGTGCTTGGGTTCTAACCTGTTGCCTTT [GGGCGTGCTAG_LTGcore_CT_RTGcore_AA] (site GGGCGTGCTAG) (LTG core: CT, RTG core: AA) | 0.509
GGGCGTGTCTGGGTTCTAACCTGTTGCCTGA [GGGCGTGCTAG_LTGcore_TC_RTGcore_TC] (site GGGCGTGCTAG) (LTG core: TC, RTG core: TC) | 0.157
GGGCGTGTGTGGGTTCTAACCTGTTGCCTCA [GGGCGTGCTAG_LTGcore_TG_RTGcore_TG] (site GGGCGTGCTAG) (LTG core: TG, RTG core: TG) | 0.0289
GGTGCCCACTGGGTTCTAACCTGTTGCCGAG [GGTGCCCCTCG_LTGcore_AC_RTGcore_CT] (site GGTGCCCCTCG) (LTG core: AC, RTG core: CT) | 0.416
GGTGCCCATTGGGTTCTAACCTGTTGCCGAG [GGTGCCCCTCG_LTGcore_AT_RTGcore_CT] (site GGTGCCCCTCG) (LTG core: AT, RTG core: CT) | 0.111
GGTGCCCCTTGGGTTCTAACCTGTTGCCGAA [GGTGCCCCTCG_LTGcore_CT_RTGcore_TT] (site GGTGCCCCTCG) (LTG core: CT, RTG core: TT) | 0.481
GGTGCCCCTTGGGTTCTAACCTGTTGCCGAG [GGTGCCCCTCG_LTGcore_CT_RTGcore_CT] (site GGTGCCCCTCG) (LTG core: CT, RTG core: CT) | 1.46
GGTGCCCCTTGGGTTCTAACCTGTTGCCGCA [GGTGCCCCTCG_LTGcore_CT_RTGcore_TG] (site GGTGCCCCTCG) (LTG core: CT, RTG core: TG) | 0.0728
GGTGCCCCTTGGGTTCTAACCTGTTGCCGTT [GGTGCCCCTCG_LTGcore_CT_RTGcore_AA] (site GGTGCCCCTCG) (LTG core: CT, RTG core: AA) | 0.0623
GTCGCCCACTGGGTTCTAACCTGTTGCTAGT [GTCGCCCCTTA_LTGcore_AC_RTGcore_AC] (site GTCGCCCCTTA) (LTG core: AC, RTG core: AC) | 0.348
GTCGCCCATTGGGTTCTAACCTGTTGCTAAT [GTCGCCCCTTA_LTGcore_AT_RTGcore_AT] (site GTCGCCCCTTA) (LTG core: AT, RTG core: AT) | 0.182

Sequence | recombinant barcode read abundance (log10)
GTCGCCCCTTGGGTTCTAACCTGTTGCTAGT [GTCGCCCCTTA_LTGcore_CT_RTGcore_AC] (site GTCGCCCCTTA) (LTG core: CT, RTG core: AC) | 0.644
GTCGCCCCTTGGGTTCTAACCTGTTGCTATC [GTCGCCCCTTA_LTGcore_CT_RTGcore_GA] (site GTCGCCCCTTA) (LTG core: CT, RTG core: GA) | 0.434
GTCGCCCTATGGGTTCTAACCTGTTGCTAAG [GTCGCCCCTTA_LTGcore_TA_RTGcore_CT] (site GTCGCCCCTTA) (LTG core: TA, RTG core: CT) | 0.0747
GTCGCCCTGTGGGTTCTAACCTGTTGCTAAG [GTCGCCCCTTA_LTGcore_TG_RTGcore_CT] (site GTCGCCCCTTA) (LTG core: TG, RTG core: CT) | 0.405
TAAGAATACTGGGTTCTAACCTGTTGCCTAG [TAAGAATCTAG_LTGcore_AC_RTGcore_CT] (site TAAGAATCTAG) (LTG core: AC, RTG core: CT) | 0.0833
TAAGAATCCTGGGTTCTAACCTGTTGCCTGG [TAAGAATCTAG_LTGcore_CC_RTGcore_CC] (site TAAGAATCTAG) (LTG core: CC, RTG core: CC) | 0.0748
TAAGAATCGTGGGTTCTAACCTGTTGCCTAG [TAAGAATCTAG_LTGcore_CG_RTGcore_CT] (site TAAGAATCTAG) (LTG core: CG, RTG core: CT) | 0.349
TAAGAATCTTGGGTTCTAACCTGTTGCCTGG [TAAGAATCTAG_LTGcore_CT_RTGcore_CC] (site TAAGAATCTAG) (LTG core: CT, RTG core: CC) | 0.39
TAAGAATCTTGGGTTCTAACCTGTTGCCTTG [TAAGAATCTAG_LTGcore_CT_RTGcore_CA] (site TAAGAATCTAG) (LTG core: CT, RTG core: CA) | 0.89
TAAGAATGTTGGGTTCTAACCTGTTGCCTAC [TAAGAATCTAG_LTGcore_GT_RTGcore_GT] (site TAAGAATCTAG) (LTG core: GT, RTG core: GT) | 0.128
TAAGAATGTTGGGTTCTAACCTGTTGCCTAG [TAAGAATCTAG_LTGcore_GT_RTGcore_CT] (site TAAGAATCTAG) (LTG core: GT, RTG core: CT) | 0.127
TAAGAATTATGGGTTCTAACCTGTTGCCTTA [TAAGAATCTAG_LTGcore_TA_RTGcore_TA] (site TAAGAATCTAG) (LTG core: TA, RTG core: TA) | 0.111
TAGAGGGAGTGGGTTCTAACCTGTTGCGGAG [TAGAGGGCTCC_LTGcore_AG_RTGcore_CT] (site TAGAGGGCTCC) (LTG core: AG, RTG core: CT) | 0.0663
TAGAGGGAGTGGGTTCTAACCTGTTGCGGCT [TAGAGGGCTCC_LTGcore_AG_RTGcore_AG] (site TAGAGGGCTCC) (LTG core: AG, RTG core: AG) | 0.0923
TAGAGGGCATGGGTTCTAACCTGTTGCGGAG [TAGAGGGCTCC_LTGcore_CA_RTGcore_CT] (site TAGAGGGCTCC) (LTG core: CA, RTG core: CT) | 2.42
TAGAGGGCCTGGGTTCTAACCTGTTGCGGGG [TAGAGGGCTCC_LTGcore_CC_RTGcore_CC] (site TAGAGGGCTCC) (LTG core: CC, RTG core: CC) | 0.132
TAGAGGGCGTGGGTTCTAACCTGTTGCGGCG [TAGAGGGCTCC_LTGcore_CG_RTGcore_CG] (site TAGAGGGCTCC) (LTG core: CG, RTG core: CG) | 0.0165
TAGAGGGCTTGGGTTCTAACCTGTTGCGGAA [TAGAGGGCTCC_LTGcore_CT_RTGcore_TT] (site TAGAGGGCTCC) (LTG core: CT, RTG core: TT) | 0.746
TAGAGGGCTTGGGTTCTAACCTGTTGCGGAC [TAGAGGGCTCC_LTGcore_CT_RTGcore_GT] (site TAGAGGGCTCC) (LTG core: CT, RTG core: GT) | 1.38
TAGAGGGCTTGGGTTCTAACCTGTTGCGGCT [TAGAGGGCTCC_LTGcore_CT_RTGcore_AG] (site TAGAGGGCTCC) (LTG core: CT, RTG core: AG) | 0.623
TAGAGGGCTTGGGTTCTAACCTGTTGCGGTG [TAGAGGGCTCC_LTGcore_CT_RTGcore_CA] (site TAGAGGGCTCC) (LTG core: CT, RTG core: CA) | 0.438
TAGAGGGGGTGGGTTCTAACCTGTTGCGGAG [TAGAGGGCTCC_LTGcore_GG_RTGcore_CT] (site TAGAGGGCTCC) (LTG core: GG, RTG core: CT) | 0.0671
